For orientation: IC30 means the concentration needed for an effect of 30%.

Structures are written as SMILES. ≈ marks a conversion by molar mass, not a printed value.

For data set [1] the following is noted: 30 mg once a day in oral administration, acute leukemia; cited from earlier work.
The subject of data set [2] is HepG2 cells. The experiment in a line: Intracellular reactive oxygen species (ROS) levels, CellROX flow cytometry. Format: cell-based. The settings on record: 100 μg/ml, 6 hours. As to the method: CellROX Deep Red Reagent was purchased from Invitrogen (Carlsbad, Calif.), and intracellular ROS levels were measured. […] The treated cells were cultured at 37° C. for 6 hours, and the cell concentration of the sample was adjusted to 5×10^3 cells/ml. Then, the cells were cultured with a CellROX Deep Red Reagent (1 mM, Invitrogen) at 37° C. for 30 minutes while protected from light. Furthermore, the cells were stained with SYTOX Blue Dead Cell Stain (5 mM, Invitrogen), and counted by flow cytometry after dead cell exclusion. Flow cytometric analysis was performed using a Canto II flow cytometer (BD Biosciences).

The next data set relates to HuH7. The settings on record: HuH7 hepatocellular carcinoma cell line; cited from earlier work.
Data set [3] relates to HepG2 cells. The experiment in a line: Apoptosis assay, Annexin V-FITC/PI flow cytometry. Format: cell-based. The note with it: 100 μg/ml. On the procedure: The cell apoptosis assay was performed by flow cytometry using an Annexin V-FITC Apoptosis Detection Kit (BioVision, Mountain View, Calif.) according to the manufacturer's protocol. For flow cytometric analysis, HepG2 cells (5×10^5 cells) were trypsinized, gently washed twice with PBS, and subsequently resuspended in 500 μL of 1× binding buffer. The cells were stained by adding 5 μL of Annexin V-FITC and propidium iodide (PI) in the dark at room temperature for 5 minutes. The green fluorescence of FITC-bound Annexin V and the red fluorescence of DNA-bound PI were measured using a Canto II flow cytometer (BD Biosciences).
Background: Flow cytometry measures light scatter and fluorescence of single cells or particles in a stream.

In a further data set the test system is PLC. The settings on record: PLC hepatocellular carcinoma cell line; cited from earlier work.

Regarding `CC(C)C[C@H](NC(=O)[C@@H](O)[C@H](N)Cc1ccccc1)C(=O)O` [ubenimex, (2S)-2-[(2S,3R)-3-amino-2-hydroxy-4-phenylbutanoylamino]-4-methylpentanoic acid], the maximum blood concentration in data set [1] is 2.21 µg/mL. Also, in the data set with HepG2 cells [2], the “intracellular ROS levels” value is “has an effect of enhancing intracellular ROS levels”. In addition, the values for the IC30 with HuH7 and in the data set on PLC were 394.8 µg/mL (≈ 1280 µM) and 498.8 µg/mL (≈ 1620 µM), respectively. Moreover, in the data set on HepG2 cells [3], the apoptosis entry was “has an effect of inducing apoptosis”.

The record behind these values is patent US20210046190A1, “ANTICANCER AGENT” (OSAKA UNIVERSITY, priority 2018, published 2021).
